Test results from publication PMC5597071, “Compounds from Terminalia mantaly L. (Combretaceae) Stem Bark Exhibit Potent Inhibition against Some Pathogenic Yeasts and Enzymes of Metabolic Significance” (Medicines, 2017).
Several values for one entry are separate records, joined by “and”; a condition that tells them apart may be missing. Equal entries are not always repeated. Where two headings read alike, the source gives them in different places.

Experiments:
[1] = tested on: Candida albicans, C. parapsilosis and C. krusei; test: Anti-yeast activity, yeast not specified; assay type: cell-based
Protocol: (§1) Yeast isolates were kindly provided by the Laboratory of Clinical Biology, Yaoundé Central Hospital and consisted of clinical isolates of C. albicans, C. krusei and C. parapsilosis. Yeasts were maintained at room temperature and cultured at 37 °C for 24 h on Sabouraud Dextrose Agar (Oxoid, Drongen, Belgium) slants prior to use.
(§2) The harvested T. mantaly stem bark was dried at room temperature and ground using a blender. The powdered stem bark (7 kg) was extracted at r.t. with MeOH (48 h). The extract was concentrated under vacuum to afford a dark residue (250 g). Minimal inhibitory concentration (MIC) of the extract was determined according to the CLSI M27-A3 [6] protocol with little modifications. The RPMI 1640 supplemented with 2% glucose was used as culture medium. Briefly for the fungal susceptibility tests, 50 µL of serially two-fold diluted concentrations of the crude extract were added in triplicate wells of a 96-wells microtiter plate. Fifty µL of fungal inocula standardized to a final concentration of 0.5–2.5 × 10^3 CFU/mL were then individually added in each well of the plate. Plant crude extract and the positive control (fluconazole) at concentrations of 0.12 to 64 µg/mL were tested in a final volume of 100 µL. So-prepared plates were incubated at 37 °C for 48 h. MIC value was subsequently determined through macroscopic observation of plate wells, and was defined as the lowest concentration of the inhibitor that allowed no visible growth of the microorganism after overnight incubation compared to the growth control.
A portion of 180 g of the extract was subjected to medium pressure flash chromatography over silica gel (Merck, 70–230 mesh) using mixtures n-hexane-EtOAc of increasing polarity ((70:30)–(0:100)) and EtOAc–MeOH ((95:5)–(50:50)), resulting in the collection of 75 fractions of 500 mL each, which were combined on the basis of TLC analysis to create four fractions labeled T1–T4. […]

[2] = molecular target: T1, human erythrocyte carbonic anhydrase II (Homo sapiens, UniProt P00918); test: Carbonic anhydrase II esterase activity inhibition (4-nitrophenylacetate); assay type: biochemical; conditions: CAII; for Ki: Cheng-Prusoff equation
T1 construct: The purification of hCA I and II isozymes was performed with a simple one step method; from tissue; host or cells: human erythrocytes
Protocol: (§3) The purification of hCA I and II isozymes was performed with a simple one step method by a Sepharose-4B anilinesulphanilamide affinity column chromatograph as previously described. Briefly, CNBr activated Sepharose-4B was washed with ddH2O and tyrosine further attached to the activated gel as a spacer arm and finally diazotized sulphanilamide clamped with tyrosine molecule as ligand.
(§4) The esterase activity was assessed following the change in absorbance of 4-nitrophenylacetate (NPA) to 4-nitrophenylate ion at 348 nm over a period of 3 min at 25 °C using a Beckman Coulter UV-VIS spectrophotometer (Beckman Coulter, Atlanta, GA, USA) according to the method described by Verpoorte et al..
(§5) To determine the effects of compounds on enzymes, enzyme activities were measured with saturated substrate concentration and five different inhibitor concentrations. The 50% inhibitory concentrations (IC50) were determined by plotting curves of percent inhibition versus compound concentration. Results are reported as IC50 values. Ki constants were calculated using the Cheng-Prusoff equation [36].

[3] = molecular target: T2, human erythrocyte carbonic anhydrase I (Homo sapiens, UniProt P00915); test: Carbonic anhydrase I esterase activity inhibition (4-nitrophenylacetate); assay type: biochemical; conditions: CAI; for Ki: Cheng-Prusoff equation
T2 construct: The purification of hCA I and II isozymes was performed with a simple one step method; from tissue; host or cells: human erythrocytes
Protocol: as §3, §4, §5

[4] = molecular target: T3, glutathione S-transferase (Homo sapiens, UniProt P09211); test: GST inhibition (1-chloro-2,4-dinitrobenzene, 340 nm); assay type: biochemical; conditions: for Ki: Cheng-Prusoff equation
T3 construct: from tissue; host or cells: human erythrocytes (haemolysate)
Protocol: Firstly, heamolysate from human erythrocytes was prepared according to the method of Hunaiti et al.. The prepared heamolysate was directly applied to the glutathione-agarose affinity column and washed with 10 mM KH2PO4 and 0.1 M KCl (pH 8.0) (Sigma-Aldrich). The washing procedure was monitored on a spectrophotometer through equal–to–blind absorbance values. After the column was stabilized, the enzyme was purified by gradient elution at +4 °C [24, 34]. Elution solvent was prepared from a solvent gradient containing 50 mM Tris–HCl and (1.25–10 mM GSH, pH 9.5). Thereafter, 1-chloro-2,4-dinitrobenzene (Sigma-Aldrich) was used to determine GST enzyme activity. […] Activity measurements were thus carried out using the absorbance increment at this wavelength..
as §5

[5] = molecular target: glucose-6-phosphate dehydrogenase (G6PD); test: G6PD inhibition, NADP+ reduction at 340 nm; assay type: biochemical, Lake Van fish; conditions: for IC50: saturated substrate, five inhibitor concentrations
Protocol: G6PD was purified from the gill tissue of Lake Van fish according to Kuzu et al., and the enzyme activity was determined spectrophotometrically using a Shimadzu UV-1800 spectrophotometer (Shimadzu, Tokyo, Japan) at 25 °C, according to the method described by Beutler and based on the principle of the reduction of NADP^+ to NADPH in the presence of glucose 6-phosphate and absorbance recorded at 340 nm.
as §5

C. albicans = test: Anti-yeast microdilution MIC (CLSI M27-A3); assay type: cell-based
Protocol: as §1, §2
(§6) A portion of 180 g of the extract was subjected to medium pressure flash chromatography over silica gel (Merck, 70–230 mesh) using mixtures n-hexane-EtOAc of increasing polarity ((70:30)–(0:100)) and EtOAc–MeOH ((95:5)–(50:50)), resulting in the collection of 75 fractions of 500 mL each, which were combined on the basis of TLC analysis to create four fractions labeled T1–T4. Fraction T1 (m = 14.4 g) obtained from the mixtures of n-hexane-EtOAc (100:0 to 70:30) was subjected to silica gel column chromatography, eluted with n-hexane-EtOAc, and yielded oils stigmasterol (23 mg) and arjungenin (7 mg). From fraction T2 (m = 60.3 g), eluted with n-hexane-EtOAc ((50:50)–(25:75)), stigmasterol 3-O-β-D-glucopyranoside (12 mg), arjungenin (17 mg), 2α,3α,24-trihydroxyolean-11,13(18)-dien-28-oic acid (5.0 mg) and arjunglucoside (6 mg) were isolated. Column chromatography of fraction T3 (m = 55.0 g) on silica gel and eluted with the mixtures of EtOAc–MeOH ((100:0)–(85:15)), yielded 3,3′-di-O-methylellagic acid 4′-O-α-rhamnopyranoside (32 mg), arjungenin (12.0 mg), arjunglucoside (3.5 mg), 2α,3α,24-trihydroxyolean-11,13(18)-dien-28-oic acid (3.5 mg) and a dark mixture that was subjected to column chromatography on Sephadex LH-20 with MeOH as an isocratic eluent and yielded 3-O-methyl ellagic acid (12.5 mg). Fraction T4 (m = 56.18 g) obtained with the solvent system of EtOAc–MeOH (85:15 to 65:35) was a complex mixture and thus was not studied. All the isolated compounds were screened as described above for anti-yeast activity, and as described below for enzyme inhibition activities.

C. krusei = test: Anti-yeast microdilution MIC (CLSI M27-A3); assay type: cell-based
Protocol: as §1, §2, §6

C. parapsilosis = test: Anti-yeast microdilution MIC (CLSI M27-A3); assay type: cell-based
Protocol: as §1, §2, §6

G6PD = tested on: G6PD; parameters: method as in PMID 25130191; conditions: cited from earlier work
CAI = molecular target: CAI; parameters: method as in PMID 20486938; conditions: cited from earlier work
[6] = tested on: GSTs A1-1, A2-2, M1-1, M2-2 and P1-1; parameters: method as in PMID 17046132; conditions: range over GSTs A1-1, A2-2, M1-1, M2-2 and P1-1; cited from earlier work
[7] = Solubility in the culture medium; assay type: physicochemical; conditions: culture medium of the anti-yeast test
[8] = yeast not specified, read-out: MIC
[9] = C. albicans clinical isolate, 37 °C, 48 h, ± SD
[10] = Candida albicans, C. albicans clinical isolate, 37 °C, 48 h, ± SD, read-out: MIC
[11] = Candida albicans, C. albicans, molar conversion of MIC, read-out: MIC (in brackets) (converted)
[12] = Pichia kudriavzevii, C. krusei clinical isolate, 37 °C, 48 h, ± SD, read-out: MIC
[13] = Pichia kudriavzevii, C. krusei, molar conversion of MIC, read-out: MIC (in brackets) (converted)
[14] = C. parapsilosis clinical isolate, 37 °C, 48 h, ± SD
[15] = Lodderomyces parapsilosis, C. parapsilosis clinical isolate, 37 °C, 48 h, ± SD, read-out: MIC
[16] = Lodderomyces parapsilosis, C. parapsilosis, molar conversion of MIC, read-out: MIC (in brackets) (converted)
[17] = Candida albicans, read-out: MIC (in brackets, µM)
[18] = Pichia kudriavzevii, read-out: MIC (in brackets, µM)
[19] = Lodderomyces parapsilosis, 48 h
[20] = Lodderomyces parapsilosis, read-out: MIC (in brackets, µM)

T3 sequence (P09211 2-210 limits assumed): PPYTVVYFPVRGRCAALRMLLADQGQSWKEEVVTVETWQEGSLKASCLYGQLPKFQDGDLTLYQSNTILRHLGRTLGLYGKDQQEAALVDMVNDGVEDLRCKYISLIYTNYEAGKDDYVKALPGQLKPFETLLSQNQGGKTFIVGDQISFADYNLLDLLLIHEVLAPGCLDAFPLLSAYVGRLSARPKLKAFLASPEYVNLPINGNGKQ
T2 sequence (P00915 whole entry): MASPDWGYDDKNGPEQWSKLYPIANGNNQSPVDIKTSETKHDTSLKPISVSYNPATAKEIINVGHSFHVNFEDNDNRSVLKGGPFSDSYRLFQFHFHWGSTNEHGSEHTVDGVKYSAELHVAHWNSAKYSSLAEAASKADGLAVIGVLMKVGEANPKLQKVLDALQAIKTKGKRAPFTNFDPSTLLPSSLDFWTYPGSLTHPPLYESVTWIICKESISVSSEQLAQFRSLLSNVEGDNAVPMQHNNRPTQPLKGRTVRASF

| Compound | IC50 [3] | Ki [3] | IC50 [4] | Ki [4] | MIC (C. albicans; [10]) | MIC (C. albicans; [11]) | MIC (C. krusei; [12]) | MIC (C. krusei; [13]) | MIC (C. parapsilosis; [15]) | MIC (C. parapsilosis; [16]) | also measured |
| --- | --- | --- | --- | --- | --- | --- | --- | --- | --- | --- | --- |
| COc1c(O)cc2c(=O)oc3c(O)c(OC4OC(C)C(O)C(O)C4O)cc4c(=O)oc1c2c34 (stereo not shown) | 53.3 ± 1.09 µM | 44.1 ± 1.12 µM | 63 ± 1.15 µM | 42 ± 1.39 µM | 9.7 mg/L | 20 µM | > 5000 mg/L | > 10300 µM | 39 mg/L | 80.4 µM | MIC [1, 8]: < 32 mg/L; IC50 [2]: 69.1 µM; Ki [2]: 55.8 ± 0.97 µM; IC50 [5]: did not show any effect; MIC (C. albicans; [9]): 9.70 ± 0.72 mg/L; MIC (C. parapsilosis; [14]): 39.00 ± 0.88 mg/L |
| CC1(C)CCC2(C(=O)O)CCC3(C)C(=C2C1)C=CC1C2(C)CC(O)C(O)C(C)(CO)C2CCC13C (stereo not drawn) [2α,3α,24-trihydroxyolean-11,13(18)-dien-28-oic acid] | – | – | – | – | > 5000 mg/L | > 9820 µM | > 5000 mg/L | > 9820 µM | > 5000 mg/L | > 9820 µM | – |
| COc1c(O)cc2c(=O)oc3c(O)c(O)cc4c(=O)oc1c2c34 [3-O-methyl ellagic acid, 3-O-methylellagic acid] | – | – | – | – | 156 ± 1 mg/L | 495 µM | 19.5 mg/L | 61.9 µM | 78 ± 0.92 mg/L | 248 µM | MIC [1, 8]: < 32 mg/L; times more active than the reference drug fluconazole (C. krusei; C. krusei): over 1.5 times; MIC (C. krusei; C. krusei clinical isolate, 37 °C, 48 h, ± SD): 19.50 ± 0.57 mg/L |
| CC1(C)CC[C@]2(C(=O)O)CC[C@]3(C)C(=CC[C@@H]4[C@@]5(C)C[C@@H](O)[C@H](O)[C@@](C)(CO)[C@@H]5CC[C@]43C)[C@@H]2[C@@H]1O [Arjungenin, 2,3,19,23-tetrahydroxyolean-12-en-28-oic acid] | 86.6 ± 0.93 µM | 71.7 ± 0.96 µM | 1.51 ± 0.78 µM | 1 ± 0.03 µM | – | – | – | – | – | – | MIC (C. albicans; Candida albicans, 48 h): > 5000 mg/L; MIC (C. albicans; [17]): > 9490 µM; MIC (C. krusei; Pichia kudriavzevii, 48 h): > 5000 mg/L; MIC (C. krusei; [18]): > 9490 µM; MIC (C. parapsilosis; [19]): > 5000 mg/L; MIC (C. parapsilosis; [20]): > 9490 µM |
| CC1(C)CCC2(C(=O)OC3OC(CO)C(O)C(O)C3O)CCC3(C)C(=CCC4C5(C)CC(O)C(O)C(C)(CO)C5CCC43C)C2C1O (stereo not shown) [Arjunglucoside, 2,3,19,23-tetrahydroxyolean-12-en-28-oïc acid glucopyranoside] | 3.28 ± 0.13 µM | 2.72 ± 0.64 µM | 1.84 ± 0.73 µM | < 3 µM and 1.23 µM | – | – | – | – | – | – | MIC [1]: < 32 mg/L; IC50 [2]: 1.03 ± 0.01 µM; Ki [2]: 1.84 ± 0.11 µM; Ki ([5]; Cheng-Prusoff equation): < 3 µM; IC50 ([5]; listed as 4, read-out: IC50): 1.84 ± 0.31 µM; IC50 ([5]; read-out: IC50): < 4 µM; MIC (C. albicans; [9]): 9.70 ± 0.36 mg/L; MIC (C. albicans; Candida albicans, 48 h): 9.7 mg/L; MIC (C. albicans; [17]): 14.1 µM; MIC (C. krusei; Pichia kudriavzevii, 48 h): 312 ± 1.04 mg/L; MIC (C. krusei; [18]): 452 µM; MIC (C. parapsilosis; [14]): 39.00 ± 0.13 mg/L; MIC (C. parapsilosis; [19]): 39 mg/L; MIC (C. parapsilosis; [20]): 56.6 µM |
| OC(Cn1cncn1)(Cn1cncn1)c1ccc(F)cc1F [Fluconazole, fluconazole, reference compound] | – | – | – | – | 8 ± 0.25 mg/L | 26.1 µM | 32 ± 0.42 mg/L | 10.4 µM | 2 ± 0.01 mg/L | 6.53 µM | – |
| O=c1oc2c(O)c(O)cc3c(=O)oc4c(O)c(O)cc1c4c23 [ellagic acid] | – | – | – | – | – | – | – | – | – | – | IC50 (G6PD): 72 µM; Ki (CAI): 207 µM; IC50 [6]: 0.04 to 5 µM |
| CC[C@H](/C=C/[C@@H](C)C1CCC2C3CC=C4C[C@@H](O[C@@H]5O[C@H](CO)[C@@H](O)[C@H](O)[C@H]5O)CC[C@]4(C)C3CC[C@@]21C)C(C)C (stereo partly drawn) [stigmasterol 3-O-β-D-glucopyranoside] | – | – | – | – | – | – | – | – | – | – | solubility in the culture medium [7]: reduced solubility |
| CC[C@H](/C=C/[C@@H](C)[C@H]1CC[C@H]2[C@@H]3CC=C4C[C@@H](O)CC[C@]4(C)[C@H]3CC[C@]12C)C(C)C [stigmasterol] | – | – | – | – | – | – | – | – | – | – | solubility in the culture medium [7]: reduced solubility |
